Key:
ROCKII = ROCKII expression in electrically-stimulated left atria, Western blotting; format: cell-based, guinea-pig
Description: (§1) Protein extraction and Western blotting analysis. Briefly, after incubation with test agents in an organ bath, isolated beating atrium was frozen and pulverized to a fine powder at the temperature of liquid nitrogen. Atrium powders were then homogenized in protein extraction reagent (Pierce Biotechnology, Inc., Rockford, Ill.) by sonication. The samples were sonicated 10 sec three times and centrifuged at 13,000 rpm at 4° C. for 30 min. The protein concentrations of supernatants were determined by using bovine serum albumin as the standard. The cell extracts were then boiled in a ratio of 4:1 with sample buffer (Tris 100 mM, pH 6.8; glycerol 20%, Sodium dodecyl sulfate (SDS) 4% and bromophenol blue 0.2%). Electrophoresis was performed using 10% SDS-PAGE and transferred to nitrocellulose membranes (Millipore Corp., Billerica, Mass.). The membrane was blocked with Tris-buffered saline (TBS; 20 mM Tris and 137 mM NaCl, pH 7.6) containing 0.1% Tween 20 (TTBS) and 5% nonfat milk at room temperature for 1 h, washed with TTBS, and then incubated overnight at 4° C. in the appropriate primary antibody for PKARI, RhoA, ROCKII, p-CIP-17, CPI-17 and PKG1α1β. The membranes were washed in TTBS before being incubated with horseradish peroxidase-conjugated antibody against mouse, goat, or rabbit IgG for 1 hr. Membranes were then washed in TTBS and developed with the enhanced chemiluminescence for the detection of the specific antigen. The intensity of the bands was measured by densitometry. eNOS or phosphorylated eNOS were extracted from cell culture of neonatal myocytes, PA ring and aortic ring (2-3 mm) of rats and measured by Western blotting analysis.
(§2) PK, ROCKII and CIP-17 expression and pretreatment of beating left atrium. To examine whether KMUP-3 or KMUP-3 amine salt affects the protein expression in beating atrium, PKA, ROCKII, PKG and phosphorylated CIP-17 was determined by Western blotting, respectively. […]

L-type Ca2+ channels = assay: Ca2+ entry currents in H9c2 cells, whole cell patch-clamp; format: cell-based, rat; settings: H9c2 cells, KMUP-3 1-100 μM
Description: To measure the ICa through L-type Ca^2+ channels, whole cell patch-clamp electrophysiology was used in rat heart-derived H9c2 cells as previously described. In brief, H9c2 cells were placed in a recording dish and perfused with a bath solution containing (in mM): 135 tetraethylammonium (TEA)-Cl, 1.8 CaCl2, 2 MgCl2, 10 glucose, and 10 HEPES (pH 7.4, Tris). […] Negative pressure was briefly applied to rupture the membrane and a gigaohm seal was obtained.
H9c2 cells were clamped at −80 mV with step depolarizations (300 ms) from −80 to 0 mV to evoke whole-cell ICa. Voltage clamped cells were equilibrated for 15 min prior to experimentation. Membrane currents were recorded on an Axopatch 700A amplifier (Axon Instruments, Union City, Calif.), filtered at 1 kHz using a low-pass Bessel filter, digitized at 5 kHz and stored on a computer for subsequent analysis with Clampfit 9.0. Following equilibration, ICa was monitored in the presence and absence of KMUP-3 or KMUP-3 amine salt (1, 10, 100 μM). To ascertain whether PKG or ROCK signaling was involved in the KMUP-3-induced decreases in ICa, H9c2 cells were incubated for 15 min with the combination of KMUP-3 or KMUP-3 amine salt (10 μM) and PKG antagonist KT5823 (3 μM) or ROCK inhibitor Y-27632 (50 μM). All electrical recordings were performed at room temperature.

PKA = PKA expression in electrically-stimulated left atria, Western blotting; format: cell-based, guinea-pig
Description: as §1, §2

RhoA [1] = assay: RhoA activation of neonatal myocytes, affinity precipitation assay; format: cell-based, rat
Description: RhoA activation was determined using an affinity precipitation assay, which binds only the active GTP-bound form of Rho. In brief, sub-confluent neonatal rat myocytes were grown to approximately 85-90% confluence, cells were exposed to KMUP-3 or KMUP-3 amine salt with 10% FBS for 90 min at 37 before addition of lysis buffer (25 mM HEPES, pH 7.5, 150 mM NaCl, 1% Igepal CA-630, 10 mM MgCl2, 1 mM EDTA and 10% glycerol, 1 Ag/ml aprotinin, 10 Ag/ml leupeptin and 1 mmol/l […]) for 15 min at 4, cell lysates were clarified by centrifugation at 13000 g at 4 for 10 min, and equal volume of lysates were incubated with agarose conjugated rhotekin-RBD for 45 min at 4, then washed three time with lysis buffer. Agarose beads were boiled in SDS-PAGE sample buffer to release active RhoA in samples were resolved on a 12% polyacrylamide gel followed by immunoblotting with anti-Rho A (clone 55).

RhoA [2] = assay: RhoA expression in electrically-stimulated left atria, Western blotting; format: cell-based, guinea-pig; settings: KMUP-3 0.1-10 μM
Description: as §1, with “The membrane was blocked with Tris-buffered saline (TBS; 20 mM Tris and 137 mM NaCl, pH 7.6) containing 0.1% Tween 20 (TTBS) and 5% nonfat milk at room temperature for 1 h, washed with TTBS, and then incubated overnight at 4° C. in the appropriate primary antibody for PKARI, RhoA, ROCKII, p-CIP-17, CPI-17 and PKG1α1β. The membranes were washed in TTBS before being incubated with horseradish peroxidase-conjugated antibody against mouse, goat, or rabbit IgG for 1 hr. Membranes were then washed in TTBS and developed with the enhanced chemiluminescence for the detection of the specific antigen.” left out
as §2

cAMP = cAMP in neonatal myocytes; format: cell-based, rat
Description: eNOS/p-NOS and cAMP/cGMP in neonatal myocytes. To determine the role of the NO/cGMP-pathway in heart, neonatal rat myocyte protein was extracted followed by Western blotting to measure the expression of eNOS, phosphorylated eNOS (p-eNOS), cAMP, and cGMP (FIG. 14 A-14 B and FIG. 15 A-15 B). KMUP-3 increased eNOS and p-eNOS in neonatal rat cardiomyocytes and the effect was reduced by L-NAME (100 μM)-pretreatment (FIG. 14A and FIG. 14B). KMUP-3 increased both cAMP and cGMP.

[3] = system: electrically-stimulated left atria; assay: Electrically-stimulated beating left atrium, organ bath; format: cell-based, guinea-pig; settings: 0.1~30 μM, electrical stimulation 1 Hz

## Cn1c(=O)c2c(ncn2CCN2CCN(c3ccc([N+](=O)[O-])cc3)CC2)n(C)c1=O [KMUP-3, 7-[2-[4-(4-nitrobenzene)piperazinyl]ethyl]-1,3-dimethylxanthine]
ROCKII; FIG. 13A, concentration not given
  ROCKII expression: significantly increased
ROCKII; KMUP-3 0.1-10 μM
  ROCKII expression: significantly increased
L-type Ca2+ channels
  Inward currents (Ca2+ entry): concentration-dependently reduced
PKA; FIG. 13B, concentration not given
  PKA expression: significantly increased
PKA; KMUP-3 0.1-10 μM
  PKA expression: significantly increased
RhoA [1]
  Rho A activation (active GTP-bound form): increased
RhoA [2]
  RhoA expression: significantly increased
cAMP
  cAMP: increased
[3]
  Left atrium contractility: concentration-dependently increased

Source: patent publication US20120321584A1, “PROCESSES FOR PREPARING AMINE SALTS OF KMUP-3 AND USE THEREOF” (KAOHSIUNG MEDICAL UNIVERSITY, priority 2011, published 2012)
